Data taken from US20240238218A1, “[…] A […] ACTIVE COMPOUND AND METHOD OF PREPARATION THEREOF” (GW Research Limited, priority 2021, published 2024).

System: DBA/2 mice
Experiment: DBA/2 mouse audiogenic seizure test
Type: in vivo
Conditions: for Clonic convulsion, Latency (s) Median / Tonic extension, Latency (s) Median / Wild running, Latency (s) Median: bell maximum 60 seconds; for Mice with a rectal temperature below 35.0° C / Tremor noted (number of mice): group of 10
From the text: The DBA/2 audiogenic seizure test, which detects anticonvulsant activity, follows that described by Dürmüller et al. (NeuroReport, vol. 4, no. 6, pages 683-686, 1993).
60 male DBA/2 mice (3-4 weeks old) were included in the experiment (weight range 8-11 g at the beginning of the experiment). Animals were acclimatized to the test facility for 1 day after delivery and randomly housed in groups of 5 in macrolon cages on wood litter with free access to food and water.
Mice were individually transferred (at 3-5 minutes intervals) from the preparation room into an adjacent experimental room and body temperature was measured using a rectal thermometer. Immediately after, they were placed in a Plexiglas jar (Diameter=40 cm; Height=35 cm) mounted with an electric bell. Upon activating the bell, the occurrences and latencies to wild running fits, clonic and tonic seizures were measured. Deaths were also recorded. The bell was activated until a tonic seizure occured or for a maximum of 60 seconds.
The experiment included 6 groups (10 mice were studied per group). Experimenters were blinded to the treatment groups.
The test substance was evaluated at 4 doses, administered i.p. (10 mL/kg) 30 or 60 minutes before the test, and compared with a vehicle control group. Doses and pre-treatment times were based on previous pharmacokinetic data.
Test compound: Compound I dissolved in 5% ethanol, 10% Kolliphor HS15, 85% physiological saline.
Vehicle control: 5% ethanol, 10% Kolliphor HS15, 85% physiological saline.
Reference: Valproate (180 mg/kg), dissolved in 5% ethanol, 10% Kolliphor HS15, 85% physiological saline.
Quantitative data (latencies) with the test substance were analyzed by comparing treated groups with vehicle control using Kruskal-Wallis test followed by Dunn's multiple comparisons test. Quantitative data with the reference substance were analyzed using Mann-Whitney U test.
Quantal data (frequencies) were analyzed by comparing treated groups with vehicle control using Fisher's Exact Probability tests.

[1] = 20 mg/kg i.p., 30 min before the test
[2] = 50 mg/kg i.p., 30 min before the test
[3] = 100 mg/kg i.p., 60 min before the test
[4] = 100 mg/kg i.p., 60 min before the test, mice with rectal temperature below 35.0° C removed
[5] = 200 mg/kg i.p., 60 min before the test
[6] = 200 mg/kg i.p., 60 min before the test, mice with rectal temperature below 35.0° C removed

C=C(C)[C@@H]1CC(O)C(C)=C[C@H]1c1c(O)cc(Br)cc1O (single isomer, unassigned) [Compound I]
Clonic convulsion, Latency, Compared with Vehicle (i.p.) % [1]: +44% | Clonic convulsion, Presence, % [1]: 70% | Clonic convulsion, Presence, Compared with Vehicle (i.p.) % [1]: −30% | Clonic convulsion, Presence, Total [1]: 7/10 | Death, Presence, % [1]: 20% | Death, Presence, Compared with Vehicle (i.p.) % [1]: −50% | Death, Presence, Total [1]: 2/10 | Tonic extension, Latency, Compared with Vehicle (i.p.) % [1]: +461% | Tonic extension, Presence, % [1]: 40% | Tonic extension, Presence, Compared with Vehicle (i.p.) % [1]: −60% | Tonic extension, Presence, Total [1]: 4/10 | Wild running, Latency, Compared with Vehicle (i.p.) % [1]: +55% | Wild running, Presence, % [1]: 80% | Wild running, Presence, Compared with Vehicle (i.p.) % [1]: −20% | Wild running, Presence, Total [1]: 8/10 | Clonic convulsion, Latency (s) Median [1]: 9.5 s | Tonic extension, Latency (s) Median [1]: 60.0 s | Wild running, Latency (s) Median [1]: 5.1 s | Clonic convulsion, Latency, Compared with Vehicle (i.p.) % [2]: +809% | Clonic convulsion, Presence, % [2]: 40% | Clonic convulsion, Presence, Compared with Vehicle (i.p.) % [2]: −60% | Clonic convulsion, Presence, Total [2]: 4/10 | Death, Presence, % [2]: 0% | Death, Presence, Compared with Vehicle (i.p.) % [2]: −100% | Death, Presence, Total [2]: 0/10 | Tonic extension, Latency, Compared with Vehicle (i.p.) % [2]: +461% | Tonic extension, Presence, % [2]: 0% | Tonic extension, Presence, Compared with Vehicle (i.p.) % [2]: −100% | Tonic extension, Presence, Total [2]: 0/10 | Wild running, Latency, Compared with Vehicle (i.p.) % [2]: +924% | Wild running, Presence, % [2]: 50% | Wild running, Presence, Compared with Vehicle (i.p.) % [2]: −50% | Wild running, Presence, Total [2]: 5/10 | Clonic convulsion, Latency (s) Median [2]: 60.0 s | Tonic extension, Latency (s) Median [2]: 60.0 s | Wild running, Latency (s) Median [2]: 33.8 s | Clonic convulsion, Latency, Compared with Vehicle (i.p.) % [3]: +809% | Clonic convulsion, Presence, Compared with Vehicle (i.p.) % [3]: −100% | Death, Presence, Compared with Vehicle (i.p.) % [3]: −100% | Tonic extension, Latency, Compared with Vehicle (i.p.) % [3]: +461% | Tonic extension, Presence, Compared with Vehicle (i.p.) % [3]: −100% | Wild running, Latency, Compared with Vehicle (i.p.) % [3]: +1718% | Wild running, Presence, Compared with Vehicle (i.p.) % [3]: −100% | Clonic convulsion, Latency (s) Median [3]: 60.0 s | Tonic extension, Latency (s) Median [3]: 60.0 s | Wild running, Latency (s) Median [3]: 60.0 s | Clonic convulsion, Presence, % [4]: 0% | Clonic convulsion, Presence, Total [4]: 0/6 | Death, Presence, % [4]: 0% | Death, Presence, Total [4]: 0/6 | Tonic extension, Presence, % [4]: 0% | Tonic extension, Presence, Total [4]: 0/6 | Wild running, Presence, % [4]: 0% | Wild running, Presence, Total [4]: 0/6 | Mice with a rectal temperature below 35.0° C (100 mg/kg i.p.): Four mice | Tremor noted (number of mice) (100 mg/kg i.p.): 5 mice | Clonic convulsion, Latency, Compared with Vehicle (i.p.) % [5]: +809% | Clonic convulsion, Presence, Compared with Vehicle (i.p.) % [5]: −80% | Death, Presence, Compared with Vehicle (i.p.) % [5]: −100% | Tonic extension, Latency, Compared with Vehicle (i.p.) % [5]: +461% | Tonic extension, Presence, Compared with Vehicle (i.p.) % [5]: −100% | Wild running, Latency, Compared with Vehicle (i.p.) % [5]: +1718% | Wild running, Presence, Compared with Vehicle (i.p.) % [5]: −80% | Clonic convulsion, Latency (s) Median [5]: 60.0 s | Tonic extension, Latency (s) Median [5]: 60.0 s | Wild running, Latency (s) Median [5]: 60.0 s | Clonic convulsion, Presence, % [6]: 33% | Clonic convulsion, Presence, Total [6]: 2/6 | Death, Presence, % [6]: 0% | Death, Presence, Total [6]: 0/6 | Tonic extension, Presence, % [6]: 0% | Tonic extension, Presence, Total [6]: 0/6 | Wild running, Presence, % [6]: 33% | Wild running, Presence, Total [6]: 2/6 | Mice with a rectal temperature below 35.0° C (200 mg/kg i.p.): Four mice | Tremor noted (number of mice) (200 mg/kg i.p.): 3 mice | Effect on the number of deaths (any doses (20, 50, 100, 200 mg/kg i.p.)): did not affect the number of deaths at any doses
